Test results: US20200017495A1, “NOVEL HETEROCYCLIC COMPOUNDS AND THEIR USE IN PREVENTING OR TREATING BACTERIAL INFECTIONS” (priority 2017, published 2020)

What was measured:
[1] = test system: Escherichia coli (ECO) isolates; experiment: MIC of compounds alone and combined with antibacterials, broth microdilution (CLSI); assay type: cell-based
Procedure, shortened: (§1)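 Broth microdilution in cation-adjusted Mueller-Hinton broth, inoculum 5.10^5 CFU/mL, 16-20 h at 35° C in ambient air, on genotyped isolates. Compound MIC, alone or with an antibacterial, taken visually as lowest concentration preventing growth; antibacterial MIC determined at each compound concentration.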

[2] = test system: Morganella morganii (MMO) isolates; experiment: as above; assay type: cell-based
Procedure, shortened: as §1

C=CC1=C(C(=O)O)N2C(=O)[C@@H](NC(=O)/C(=N\OCC(=O)O)c3csc(N)n3)[C@H]2SC1 [FIX, Cefixime]
MIC ATB in combination ([1]; strain ECO UFR179, with AF3 @ 8 μg/mL): <0.25 µg/mL
MIC ATB in combination ([1]; strain ECO UFR179, with CLA @ 4 μg/mL): >128 µg/mL
MIC ([1]; strain ECO UFR180, genotype TEM-1, CMY-30, OXA-1, NDM-1, antibiotic alone): >128 µg/mL
MIC ATB in combination ([1]; strain ECO UFR180, with AF2 @ 8 μg/mL): <0.25 µg/mL
MIC ATB in combination ([1]; strain ECO UFR180, with AF3 @ 8 μg/mL): <0.25 µg/mL
MIC ATB in combination ([1]; strain ECO UFR180, with CLA @ 4 μg/mL): >128 µg/mL
MIC ([1]; strain ECO UFR181, genotype TEM-1, CTX-M-15, NDM-5, antibiotic alone): >128 µg/mL
MIC ATB in combination ([1]; strain ECO UFR181, with AF2 @ 8 μg/mL): <=0.25 μg/mL
MIC ATB in combination ([1]; strain ECO UFR181, with AF3 @ 8 μg/mL): >128 µg/mL
MIC ATB in combination ([1]; strain ECO UFR181, with CLA @ 4 μg/mL): >128 µg/mL
MIC ([1]; strain ECO UFR182, genotype CTX-M-15, OXA-1, NDM-6, antibiotic alone): >128 µg/mL
MIC ATB in combination ([1]; strain ECO UFR182, with AF2 @ 8 μg/mL): <0.25 µg/mL
MIC ATB in combination ([1]; strain ECO UFR182, with AF3 @ 8 μg/mL): <0.25 µg/mL
MIC ATB in combination ([1]; strain ECO UFR182, with CLA @ 4 μg/mL): >128 µg/mL
MIC ([1]; strain ECO UFR183, genotype CTX-M-15, OXA-1, NDM-7, antibiotic alone): >128 µg/mL
MIC ATB in combination ([1]; strain ECO UFR183, with AF2 @ 8 μg/mL): >128 µg/mL
MIC ATB in combination ([1]; strain ECO UFR183, with AF3 @ 8 μg/mL): >128 µg/mL
MIC ATB in combination ([1]; strain ECO UFR183, with CLA @ 4 μg/mL): >128 µg/mL
MIC ([1]; strain ECO UFR184, genotype CTX-M-15, CMY-4, OXA-1, OXA-204): >128 µg/mL
MIC ([1]; strain ECO UFR185, genotype OXA-48): >128 µg/mL
MIC ([1]; strain ECO UFR186, genotype TEM-1, CTX-M-14, OXA-48): 32 µg/mL
MIC ATB in combination ([1]; strain ECO UFR186, with AF2 @ 8 μg/mL): <0.25 µg/mL
MIC ATB in combination ([1]; strain ECO UFR186, with AF3 @ 8 μg/mL): <0.25 µg/mL
MIC ATB in combination ([1]; strain ECO UFR186, with CLA @ 4 μg/mL): 8 µg/mL
MIC ([1]; strain ECO UFR187, genotype CTX-M-15, OXA-48): 32 µg/mL
MIC ATB in combination ([1]; strain ECO UFR187, with AF2 @ 8 μg/mL): <=0.25 μg/mL
MIC ATB in combination ([1]; strain ECO UFR187, with AF3 @ 8 μg/mL): 0.5 µg/mL
MIC ATB in combination ([1]; strain ECO UFR187, with CLA @ 4 μg/mL): 2 µg/mL
MIC ([1]; strain ECO UFR189, genotype TEM-1, CTX-M-15, OXA-48): >128 µg/mL
MIC ATB in combination ([1]; strain ECO UFR189, with AF2 @ 8 μg/mL): <0.25 µg/mL
MIC ATB in combination ([1]; strain ECO UFR189, with AF3 @ 8 μg/mL): <0.25 µg/mL
MIC ATB in combination ([1]; strain ECO UFR189, with CLA @ 4 μg/mL): 4 µg/mL
MIC ([1]; strain ECO UFR190, genotype CTX-M-24, OXA-48): 64 µg/mL
MIC ATB in combination ([1]; strain ECO UFR190, with AF2 @ 8 μg/mL): <0.25 µg/mL
MIC ATB in combination ([1]; strain ECO UFR190, with AF3 @ 8 μg/mL): <0.25 µg/mL
MIC ATB in combination ([1]; strain ECO UFR190, with CLA @ 4 μg/mL): 8 µg/mL
MIC ([1]; strain ECO UFR191, genotype TEM-1, CTX-M-24, OXA-48): >128 µg/mL
MIC ATB in combination ([1]; strain ECO UFR191, with AF2 @ 8 μg/mL): <0.25 µg/mL
MIC ATB in combination ([1]; strain ECO UFR191, with AF3 @ 8 μg/mL): <0.25 µg/mL
MIC ATB in combination ([1]; strain ECO UFR191, with CLA @ 4 μg/mL): 4 µg/mL
MIC ([1]; strain ECO UFR204, genotype TEM-1, CMY-4, OXA-48, VIM-1, antibiotic alone): >128 µg/mL
MIC ATB in combination ([1]; strain ECO UFR204, with AF2 @ 8 μg/mL): <0.25 µg/mL
MIC ATB in combination ([1]; strain ECO UFR204, with AF3 @ 8 μg/mL): <0.25 µg/mL
MIC ATB in combination ([1]; strain ECO UFR204, with CLA @ 4 μg/mL): >128 µg/mL
MIC ([1]; strain ECO UFR205, genotype CTX-M-15, VIM-4, antibiotic alone): >128 µg/mL
MIC ATB in combination ([1]; strain ECO UFR205, with AF2 @ 8 μg/mL): <=0.25 μg/mL
MIC ATB in combination ([1]; strain ECO UFR205, with AF3 @ 8 μg/mL): <=0.25 μg/mL
MIC ATB in combination ([1]; strain ECO UFR205, with CLA @ 4 μg/mL): >128 µg/mL
MIC ([1]; strain ECO UFR206, genotype TEM-1, CTX-M-15, OXA-1, VIM-4, antibiotic alone): >128 µg/mL
MIC ATB in combination ([1]; strain ECO UFR206, with AF2 @ 8 μg/mL): >128 µg/mL
MIC ATB in combination ([1]; strain ECO UFR206, with AF3 @ 8 μg/mL): >128 µg/mL
MIC ATB in combination ([1]; strain ECO UFR206, with CLA @ 4 μg/mL): >128 µg/mL
MIC ([1]; strain ECO UFR207, genotype CTX-M-15): >128 µg/mL
MIC ([1]; strain ECO UFR208, genotype SHV-12): >128 µg/mL
MIC ([1]; strain ECO UFR209, compound alone): 1024 µg/mL
MIC ([1]; strain ECO UFR209, genotype TEM-1, CTX-M-15): 1024 µg/mL
MIC ([1]; strain ECO UFR210, genotype SHV-12): 32 µg/mL
MIC ([1]; strain ECO UFR211, genotype TEM-24): >128 µg/mL
MIC ([1]; strain ECO UFR212, genotype CMY-2): >128 µg/mL
MIC ([1]; strain ECO UFR218, genotype TEM-1, SHV-1, CTX-M-15): >128 µg/mL
MIC ([1]; strain ECO UFR252GO, genotype VIM-2, antibiotic alone): >128 µg/mL
MIC ATB in combination ([1]; strain ECO UFR252GO, with AF2 @ 8 μg/mL): <0.25 µg/mL
MIC ATB in combination ([1]; strain ECO UFR252GO, with AF3 @ 8 μg/mL): <0.25 µg/mL
MIC ATB in combination ([1]; strain ECO UFR252GO, with CLA @ 4 μg/mL): >128 µg/mL
MIC ([1]; strain ECO UFR255, genotype NDM-1, antibiotic alone): >128 µg/mL
MIC ATB in combination ([1]; strain ECO UFR255, with AF2 @ 8 μg/mL): <0.25 µg/mL
MIC ATB in combination ([1]; strain ECO UFR255, with AF3 @ 8 μg/mL): <0.25 µg/mL
MIC ATB in combination ([1]; strain ECO UFR255, with CLA @ 4 μg/mL): >128 µg/mL
MIC ATB in combination ([2]; MMO 200321, AF2 @ 8 μg/mL): 1 µg/mL
MIC ATB in combination ([2]; MMO 200321, AF3 @ 8 μg/mL): 1 µg/mL
MIC ATB in combination ([2]; MMO 200321, CLA @ 4 μg/mL): 32 µg/mL
MIC ATB in combination ([2]; MMO UFR144, AF2 @ 8 μg/mL): 1 µg/mL
MIC ATB in combination ([2]; MMO UFR144, AF3 @ 8 μg/mL): 0.5 µg/mL
MIC ATB in combination ([2]; MMO UFR144, CLA @ 4 μg/mL): 32 µg/mL
MIC ATB in combination ([2]; MMO UFR240, AF2 @ 8 μg/mL): <=0.25 μg/mL
MIC ATB in combination ([2]; MMO UFR240, AF3 @ 8 μg/mL): <=0.25 μg/mL
MIC ATB in combination ([2]; MMO UFR240, CLA @ 4 μg/mL): 8 µg/mL
MIC ATB in combination ([2]; MMO UFR241, AF2 @ 8 μg/mL): 2 µg/mL
MIC ATB in combination ([2]; MMO UFR241, AF3 @ 8 μg/mL): 0.5 µg/mL
MIC ATB in combination ([2]; MMO UFR241, CLA @ 4 μg/mL): 32 µg/mL
MIC ATB in combination ([2]; MMO UFR242, AF2 @ 8 μg/mL): <=0.25 μg/mL
MIC ATB in combination ([2]; MMO UFR242, AF3 @ 8 μg/mL): 1 µg/mL
MIC ATB in combination ([2]; MMO UFR242, CLA @ 4 μg/mL): 64 µg/mL
MIC ATB in combination ([2]; MMO UFR243, AF2 @ 8 μg/mL): 0.5 µg/mL
MIC ATB in combination ([2]; MMO UFR243, AF3 @ 8 μg/mL): <=0.25 μg/mL
MIC ATB in combination ([2]; MMO UFR243, CLA @ 4 μg/mL): 32 µg/mL
MIC ATB in combination ([2]; MMO UFR244, AF2 @ 8 μg/mL): <=0.25 μg/mL
MIC ATB in combination ([2]; MMO UFR244, AF3 @ 8 μg/mL): <=0.25 μg/mL
MIC ATB in combination ([2]; MMO UFR244, CLA @ 4 μg/mL): 8 µg/mL
MIC ATB in combination ([2]; MMO UFR245, AF2 @ 8 μg/mL): 1 µg/mL
MIC ATB in combination ([2]; MMO UFR245, AF3 @ 8 μg/mL): <=0.25 μg/mL
MIC ATB in combination ([2]; MMO UFR245, CLA @ 4 μg/mL): 64 µg/mL
MIC ATB in combination ([2]; MMO UFR246, AF2 @ 8 μg/mL): 1 µg/mL
MIC ATB in combination ([2]; MMO UFR246, AF3 @ 8 μg/mL): 0.5 µg/mL
MIC ATB in combination ([2]; MMO UFR246, CLA @ 4 μg/mL): 64 µg/mL
MIC ATB in combination ([2]; MMO UFR247, AF2 @ 8 μg/mL): <=0.25 μg/mL
MIC ATB in combination ([2]; MMO UFR247, AF3 @ 8 μg/mL): <=0.25 μg/mL
MIC ATB in combination ([2]; MMO UFR247, CLA @ 4 μg/mL): 32 µg/mL
MIC ([2]; strain MMO 200321, genotype TEM-1, CTX-M-15, OXA-1): >128 µg/mL
MIC ([2]; strain MMO UFR144, genotype TEM-1, CTX-M-15): >128 µg/mL
MIC ATB in combination ([2]; strain MMO UFR145, with AF2 @ 8 μg/mL): >128 µg/mL
MIC ATB in combination ([2]; strain MMO UFR145, with AF3 @ 8 μg/mL): >128 µg/mL
MIC ATB in combination ([2]; strain MMO UFR145, with CLA @ 4 μg/mL): >128 µg/mL
MIC ([2]; strain MMO UFR240, genotype CTX-M-9): 1 µg/mL
MIC ([2]; strain MMO UFR241, genotype TEM-1, CTX-M-15): >128 µg/mL
MIC ([2]; strain MMO UFR242, genotype TEM-52): 1024 µg/mL
MIC ([2]; strain MMO UFR243, genotype DHA-1): 8 µg/mL
MIC ([2]; strain MMO UFR244, genotype DHA-1): 4 µg/mL
MIC ([2]; strain MMO UFR245, genotype DHA-1): 32 µg/mL
MIC ([2]; strain MMO UFR246, genotype DHA-1): 32 µg/mL
MIC ([2]; strain MMO UFR247, genotype DHA-1): 16 µg/mL
